As usually defined, the inhibition is the change of the read-out against control, counted positive when it falls. The term % Inhibition denotes the share of the control response that was lost under treatment.

In series [1] the test system is STZ-diabetic male Sprague Dawley rats. The experiment in a line: Diabetic-induced neuropathic pain: warm plate (38° C.) test (warm allodynia) in STZ rats. It is filed as in vivo, rat. The note with it: day 10.
In series [2] the test system is embyronal hippocampal neurons. The series is described as follows: Effect on neurite outgrowth from hippocampal neurons. It is filed as cell-based, rat. As to conditions: for neurite mean length (% of control): 3 days exposure, two cultures normalized. Here is the method: Neurite outgrowth is an important parameter to evaluate the neurotrophic potency of a compound. […] The hippocampal neurons from pregnant Wistar female rats were dissociated by trypsinization for 30 min at 37° C. (trypsin-EDTA, Gibco) in presence of DNAse I (Roche, Meylan). The reaction was stopped by addition of medium of Eagle modified by Dulbecco (DMEM; Gibco) with 10% of fetal bovine serum (Gibco). The suspension was triturated with a 10-ml pipette and using a 21G needle syringe and centrifuged at 350×g for 10 min at room temperature. The resulting pellet was re-suspended in culture medium containing Neurobasal medium (Gibco) with 2% of B27 supplement (Gibco) and 2 mM of glutamine (Gibco). Viable cells were counted in a Neubauer cytometer using the trypan blue exclusion test (Sigma) and seeded on the basis of 30 000 cells per Petri dish (Nunc) precoated with poly-L-lysine (Sigma). Cells were allowed to adhere 2 h and maintained in a humidified incubator at 37° C. in 5% CO2-95% air atmosphere.
After adhesion, vehicle and test compound at different concentrations (1 μM, 3 μM, 10 μM and 30 μM) were added to the medium. BDNF (50 ng/ml, 3.7 nM) was included as positive control for neurite growth. The test compound was tested in two independent cultures in parallel with control and BNDF cultures.
After the 3 days exposure of the neurons to the test compounds, cultures were washed in phosphate-buffered saline (PBS, Gibco) and fixed using 2.5% glutaraldehyde in PBS. Several pictures (˜80) of cells with neurites without any branching were taken per condition using a digital camera (Coolpix 995; Nikon) fixed on the microscope (Nikon, objective 40×). Neurites were outlined on computer screen using imaging software (Image-Pro Plus, France), which automatically calculates the length.

A further series deals with mouse. As to conditions: for number of deaths after ECS: 20 mice per group, vehicle 1; for ECS intensity administered, mean ± s.e.m.: vehicle 36.5 ± 1.0. The method, then:
The method, which detects pro-convulsant or anti-convulsant activity, follows that described by Swinyard et al. (J. Pharmacol. Exp. Ther. 1952, 106, 319-330). Mice were administered ECS (rectangular current, 0.4 s, 50 Hz) via corneal electrodes connected to a constant current shock generator (Ugo Basile: Type 7801).
A group wherein the vehicle is administered orally 60 minutes before the ECS serves a control. Diazepam (8 mg/kg p.o.), administered under the same experimental conditions, served as a positive anti-convulsive reference substance.
If there were also no convulsions in animal no 2, then the current was further increase in the following animals (increases of 10 mA) until the first tonic convulsion was observed. Once the first tonic convulsion was observed, the intensity of ECS was decreased by 5 mA for the next animal and then the intensity was decreased or increased by 5 mA from animal to animal depending on whether or the previous animal convulsed or not. The minimum intensity given was 25 mA and the maximum intensity given was 95 mA. The electroconvulsive shock threshold was determined as the mean current administered in the last 20 mice.
The number of deaths is also recorded approximately 30 minutes after the animal has been tested for convulsions. The test was performed blind. A positive percent change indicates an anticonvulsant effect. A negative percent change indicates a proconvulsant effect.
Quantitative data were analyzed by comparing treated groups with vehicle control using unpaired Student's t tests. Quantal data were analyzed by comparing treated groups with vehicle control using Fisher's Exact Probability tests.

For series [3], the target named is T1, human carbonic anhydrase II from erythrocytes (Homo sapiens, UniProt P00918).
T1 construct: human carbonic anhydrase II from erythrocytes (Sigma Aldrich); purchased Sigma Aldrich; host or cells: human erythrocytes
The experiment in a line: In vitro inhibition of human carbonic anhydrase II (dansylamide fluorescence). It counts as biochemical. Here is the method: (§1) The test compounds of general Formula I in 96 well microplates were diluted with aqua bidest by using an automatic pipettor (CyBiWell®). From the different dilution plates, aliquots of 20 μl were transferred to the 96 well black assay plates with a pipetting station (Tecan Genesis®). In a second step, 148 μl of potassium phosphate buffer (20 mM, pH 7.4) was added, and as a third step, 20 μl of enzyme solution (1 μM human carbonic anhydrase isoenzyme I from erythrocytes (Sigma-Aldrich) or human carbonic anhydrase II from erythrocytes (Sigma Aldrich), or recombinant human carbonic anhydrase isoenzyme VB (R&D Systems), dissolved in potassium phosphate buffer) incubated for 60 min at room temperature and the fluorescence signal (Tecan Ultra® fluorescence reader; excitation wavelength: 280 nm; emission wavelength: 465 nm) read at the end of the preincubation period (FLU-1). After the preincubation time, 20 μl of aqueous dansylamide solution (1 mM dansylamide (Sigma-Aldrich), dissolved in hydrochloric acid) were added and the fluorescence signal read every 10 min for a period of 60 min at 37° C. For calculation, the fluorescence data of the time point 60 min (FLU-2) were used. The total volume of assay mixture amounted to 208 μl. […] Each microplate also contained blanks without compound and enzyme, controls without compound and ethoxzolamide (final concentration 5×10^-[…]) as validation standard compound. All data reflect single measurements. Data were expressed as % inhibition after calculation by the formula: [formula] […] Concentration action figures were calculated by applying the Prism algorithm for nonlinear regression (curve-fit): sigmoidal dose response with variable slope and the constraints: top: 100 and bottom 0.

For series [4], the system named is STZ-diabetic male Sprague Dawley rats. The experiment in a line: Diabetic-induced neuropathic pain: cold bath test (cold allodynia) in STZ rats. It counts as in vivo, rat. As to conditions: day 10.
In a further series the test system is male C57BI/6 mice. The series is described as follows: Acute in vivo food intake test in mice. The note with it: high caloric diet, 50 mg/kg/day oral gavage twice daily for 3 days, day 3.
In series [5] the target is T2, human carbonic anhydrase isoenzyme I from erythrocytes (Homo sapiens, UniProt P00915).
T2 construct: human carbonic anhydrase isoenzyme I from erythrocytes (Sigma-Aldrich); purchased Sigma-Aldrich; host or cells: human erythrocytes
T2 sequence (P00915 whole entry): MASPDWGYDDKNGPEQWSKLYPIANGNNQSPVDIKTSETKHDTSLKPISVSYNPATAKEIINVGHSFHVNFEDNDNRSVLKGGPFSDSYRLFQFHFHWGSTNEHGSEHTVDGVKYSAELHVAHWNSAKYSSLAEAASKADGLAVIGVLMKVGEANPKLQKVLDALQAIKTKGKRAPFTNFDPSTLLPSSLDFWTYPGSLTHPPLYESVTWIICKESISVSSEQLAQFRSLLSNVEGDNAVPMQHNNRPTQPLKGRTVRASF
The experiment in a line: In vitro inhibition of human carbonic anhydrase isoenzyme I (dansylamide fluorescence). It is filed as biochemical. The method, then:
as §1

Series [6] deals with T3, recombinant human carbonic anhydrase isoenzyme VB (Homo sapiens, UniProt Q9Y2D0).
T3 construct: purchased R&D Systems
T3 sequence (Q9Y2D0 34-317): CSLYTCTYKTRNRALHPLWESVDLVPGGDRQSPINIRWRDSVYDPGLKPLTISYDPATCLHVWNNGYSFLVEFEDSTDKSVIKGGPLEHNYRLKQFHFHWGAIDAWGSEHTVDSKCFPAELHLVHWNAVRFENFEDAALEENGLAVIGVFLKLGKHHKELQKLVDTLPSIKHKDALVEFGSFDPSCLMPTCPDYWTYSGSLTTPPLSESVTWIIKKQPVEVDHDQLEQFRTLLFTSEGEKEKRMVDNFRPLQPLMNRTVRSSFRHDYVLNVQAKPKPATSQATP
The experiment in a line: In vitro inhibition of human carbonic anhydrase isoenzyme VB (dansylamide fluorescence). It counts as biochemical. The note with it: final compound concentration 10 μM. Here is the method:
as §1

For series [7], the system named is embyronal hippocampal neurons. The series is described as follows: Effect on neurite outgrowth from hippocampal neurons. It is filed as cell-based, rat. The note with it: BDNF 1.85 nM (positive control), 3 days exposure.
The mark [8] stands for this setting: final compound concentration 0.1 μM.
Where [9] appears, read: final compound concentration 1 μM.

Read-outs that look alike come from different tables or passages of the source. Marks after values point to notes of the source that are not given here.

Method for male C57BI/6 mice: The studies were carried out in male C57BI/6 mice (n=12 per group). The mice were kept on an inverted 12/12 h light/dark cycle (lights on 22:00). They were allowed food (high caloric diet) and water ad libitum. Food intake and water consumption was measured daily. The test compound of general Formula I was suspended in 1% methyl hydroxyethyl cellulose in water and 0.1% (v/v) of poloxamer 188 and administered by oral gavage at a dose of 50 mg/kg/day twice daily for 3 days. One half of the dose was administered at 8.00-10.00 h; the remaining half of the dose was administered between 14.00-15.00 h.

`CC1(C)[C@H]2CC[C@H](COS(N)(=O)=O)[C@@H]1C2` [Compound 1, [(1S,2S,5S)-6,6-dimethylbicyclo[3.1.1]hept-2-yl]methyl-sulfamate]: the “% inhibition (compared to STZ/vehicle group), warm plate test” value is recorded as 53% in series [1] (10 mg/kg p.o. 1 h before test), 59* % in series [1] (30 mg/kg p.o. 1 h before test) and 64* % in [1] (50 mg/kg p.o. 1 h before test). Moreover, the “neurite mean length (% of control)” value is recorded as 110.9 % of control in series [2] (1 μM), 108.9 % of control in series [2] (3 μM), 113.2 % of control in series [2] (10 μM) and 114.5 % of control in series [2] (30 μM). Also, the “number of deaths after ECS” value with mouse (10 mg/kg p.o. −60 min) is 2; in the series with mouse (30 mg/kg p.o. −60 min), 0; with mouse (100 mg/kg p.o. −60 min) it was 1. The “ECS intensity administered, mean ± s.e.m.” value came out at 40.0 ± 1.2 mA in the series on mouse (10 mg/kg p.o. −60 min), 43.5 ± 1.5 mA with mouse (30 mg/kg p.o. −60 min) and 88.0 ± 2.1 mA with mouse (100 mg/kg p.o. −60 min). The inhibition at 0.1 µM in [3] (setting [8]) stood at 56%; in series [5] (setting [8]) it was 85%. Besides, the “% inhibition (compared to STZ/vehicle group), cold bath test” value in series [4] (10 mg/kg p.o. 1 h before test) is 62* %; in series [4] (30 mg/kg p.o. 1 h before test), 58* %; in series [4] (50 mg/kg p.o. 1 h before test), 72* %. Also, the “food intake [% of control]” value in the series on male C57BI/6 mice is listed as 69.4% (day 3) % of control. In addition, in [6], the inhibition at 10 µM was determined as 70%.
In the case of `CN1C(=O)CN=C(c2ccccc2)c2cc(Cl)ccc21` [Diazepam, reference compound], in the series with mouse (8 mg/kg p.o. −60 min), the “ECS intensity % change from control” value is “+124%”; the “number of deaths after ECS” value came to 0; the “ECS intensity administered, mean ± s.e.m.” value was found to be 81.8 ± 3.0 mA.
For “(1R,4S)-bicyclo[2.2.1]hept-2-yl-methylsulfamate [Compound 5]”, the “% Inhibition” value in series [3] (setting [9]) is recorded as 77%; in series [5] (setting [9]) it was 91%; in series [6], 41%.
With `CC1(C)[C@@H]2CC[C@@H](COS(N)(=O)=O)[C@H]1C2` [Compound 2, [(1R,2R,5R)-6,6-dimethylbicyclo[3.1.1]hept-2-yl]methyl-sulfamate], the inhibition at 0.1 µM in series [3] (setting [8]) was 33%; in series [5] (setting [8]), 70%. Moreover, in series [6], the inhibition at 10 µM was 75%.
Regarding `CC1(C)[C@H]2CC[C@@H](CCOS(N)(=O)=O)[C@@H]1C2` [Compound 3, [(1S,2S,5S)-6,6-dimethylbicyclo[3.1.1]hept-2-yl]ethyl-sulfamate], the figures for the “% Inhibition” value in [3] (setting [8]), in [5] (setting [8]) and in series [6] were 15%, 28% and 55%, respectively.
Regarding “(4S)-bicyclo[2.2.1]hept-5-en-2-ylmethylsulfamate [Compound 6]”, the “% Inhibition” value amounted to 76% in [3] (setting [9]), 94% in series [5] (setting [9]) and 40% in series [6].
On the same counts, the results for `CC1(C)[C@H]2CC[C@@H](COS(N)(=O)=O)[C@@H]1C2` [Compound 4, [(1S,2R,5S)-6,6-dimethylbicyclo[3.1.1]hept-2-yl]methylsulfamate] are 72%, 80% and 53%.

B1: BDNF: BDNF (50 ng/ml, 3.7 nM) was included as positive control for neurite growth (protein, UniProt P23560 19-247, looked up)
Neurotrophic factor BDNF …: APMKEANIRGQGGLAYPGVRTHGTLESVNGPKAGSRGLTSLADTFEHVIEELLDEDQKVRPNEENNKDADLYTSRVMLSSQVPLEPPLLFLLEEYKNYLDAANMSMRVRRHSDPARRGELSVCDSISEWVTAADKKTAVDMSGGTVTVLEKVPVSKGQLKQYFYETKCNPMGYTKEGCRGIDKRHWNSQCRTTQSYVRALTMDSKKRIGWRFIRIDTSCVCTLTIKRGR
B1: the “increase in neurite length normalized by mean control neurite length” value in series [2] (50 ng/ml BDNF, both cultures normalized) is on record as 16.4%. Further, the “mean increase in neurite length” value came out at 24.5 μm in [2] (50 ng/ml BDNF, first culture) and 8.6 μm in series [2] (50 ng/ml BDNF, second culture). Besides, the “neurite length (mean±SEM)” value in series [2] (50 ng/ml BDNF, first culture, n=79 (control 105.7±3.2)) is listed as 131.6±3.1 μm; in series [2] (50 ng/ml BDNF, second culture, n=82 (control 109.3±3.1)), 118.7±2.8 μm. Moreover, in series [7], the “neurite mean length (% of control)” value is given as 116.4 % of control.

The values above are taken from patent US20090104126A1, “Sulfamate Compounds and Uses Thereof” (Solvay Pharmaceuticals GmbH, priority 2007, published 2009).
